Patent publication EP3248604A1, “AGENTS FOR MODULATION OF WNT-TCF SIGNALLING AND USES THEREOF” (UNIVERSITE DE GENEVE, priority 2016, dated 2017)

Legend:
Assay type in all cases: cell-based, human
Epigenetic regulators [1] = test: RT-qPCR of epigenetic regulators in U251 cells; details: 0.5 µM
Protocol: (§1) RT-qPCR was performed as in Melotti et al. (2014, supra) using BioRad equipment and reagents. Cells cultured in nitro were treated with the desired concentration of drug in DMEM-F12 and reduced serum (2.5% FBS) for 16h, unless otherwise noted, and collected in Trizol (Sigma) before total RNA extraction and cDNA synthesis. Primers were as in Table 1. HPRT (gene encoding Hypoxanthine phosphoribosyltransferase 1) and βACTIN were used as housekeeping controls for normalization.
(§2) The WNT-TCF-independent repressive activity of CAP2 on epigenetic regulators may be extrapolated to other cancer cells as it was also detected in HT29 and CC14 human colon cancer cells, in MeWo human melanoma cells as well as in U87 and U251 human glioma cells. In all these different human cancer cells, CAP2 (at 0.5 µM) modulated the expression of ZMYND8, SMARCAL1, TBLIXR1, SETD6 and TAF5Ls (Table 15).

BMP/TGFβ = test: RT-qPCR gene expression in Ls174T cells, BMP/TGFβ genes; details: vs DMSO=1
Protocol: as §1
(§3) Nine components of the three pathways (WNT-TCF, BMP/TGFβ and chemokine/cytokine), and the top 6 repressed epigenetic regulators (ZMYND8, EED, SMARCAL1, TBLIXR1, SETD6 and TAF5L) (Figure 12) were tested for their modulation by dnTCF and their timed response to CAP2 treatment. […] DnTCF also repressed the expression of BMP4, SMAD6, IL8, CXCL3 and CXCL5, but expression of IL33 was enhanced. […] BMP4 and ID2 were also repressed at 2 and 4h but SMAD6 was repressed only at 4h. CXCL3 was already repressed at 2h, IL8 was little affected and IL33 and CXCL5 were enhanced at 2h. At 4 h only CXCL3 was repressed and the other three cytokine/chemokine genes tested (IL8, IL33 and CXCL5) were neither enhanced nor repressed. […] All values are normalized ratios with DMSO-controls, which were equated to 1 Table 14

WNT-TCF targets [2] = test: RT-qPCR gene expression in CC36 primary colon cancer cells; details: 16h, batch 3, vs DMSO=1
Protocol: as §1
(§4) Primary colon cells CC14, CC36 and mCC11, colon cancer cell lines DLD1, HT29, Ls174T, melanoma cell line MeWo, glioblastoma cell lines U87 and U251, and the lung cancer cell line H358 were cultured in DMEM-F12 with 10% FBS under standard in nitro conditions.

Epigenetic regulators [3] = test: RT-qPCR of epigenetic regulators in HT29 cells; details: 0.5 µM
Protocol: as §1, §2

Epigenetic regulators [4] = test: RT-qPCR gene expression in Ls174T cells, epigenetic regulators; set-up: key: ratio normalized to DMSO control = 1; details: vs DMSO=1
Protocol: as §1, §3

Epigenetic regulators [5] = test: RT-qPCR of epigenetic regulators in CC14 cells; details: 0.5 µM
Protocol: as §1, §2

WNT-TCF targets [6] = test: Epistatic rescue with TCF^VP16, DLD1; details: CAP2 5µM, 16h
Protocol: (§5) Lentivectors expressing a TCF4^VP16 protein in a vector independently expressing GFP, or vector alone, plus reporter plasmids were transfected into cells. 72h after transfection cells were visually checked for expression of GFP. Independent batches of cells with >80% GFP expression were chosen for further experimentation and treated with or without compounds in DMEM-F12 (with 2.5% FBS) for 16h and collected in Trizol.
(§6) If the effects of CAP2 on WNT-TCF targets were specific, an activated form of TCF should rescue the repression since CAP2 is likely to act downstream of the APC destruction complex since it was found using an N'Δ form of βCATENIN that is APC insensitive. To activate this last step of canonical WNT signaling, a fusion between TCF and the potent transactivation domain of the viral VP16 protein, TCF^VP16 (Melotti et al., 2014, supra), was used to directly and positively regulate TCF targets. […] Rescue of LGR5, cMYC and ASCL2 repression by CAP2 (at 5µM) was also observed although there was variability between the cell types, similarly to the repression of CDKN1A (Table 8), although in all cases it reversed its enhancement by CAP2 treatment (Table 8).

WNT-TCF targets [7] = test: Epistatic rescue with TCF^VP16, mCC11; details: CAP2 5µM, 16h
Protocol: as §5, §6

WNT-TCF targets [8] = test: RT-qPCR gene expression in MeWo melanoma cells; details: 16h, batch 3, vs DMSO=1
Protocol: as §1, §4

Chemokine/cytokine = test: RT-qPCR gene expression in Ls174T cells, chemokine/cytokine genes; set-up: key: ratio normalized to DMSO control = 1; details: vs DMSO=1
Protocol: as §1, §3

SMILES: CC1=C(C)C(=O)O[C@@H]([C@](C)(O)[C@]2(O)CC[C@@]3(O)[C@@H]4CC=C5CC=CC(=O)[C@]5(C)[C@H]4CC[C@]23C)C1 [CAP2]
- EED expression (Epigenetic regulators [1]): 0.8
- SETD6 expression (Epigenetic regulators [1]): 0.9
- SMARCAL1 expression (Epigenetic regulators [1]): 0.5
- TAF5L expression (Epigenetic regulators [1]): 1.1
- TBL1XR1 expression (Epigenetic regulators [1]): 0.6
- ZMYND8 expression (Epigenetic regulators [1]): 0.4
- BMP4 expression (BMP/TGFβ; 5µM batch 3, 2h post-treatment): 0.4
- ID2 expression (BMP/TGFβ; 5µM batch 3, 2h post-treatment): 0.7
- SMAD6 expression (BMP/TGFβ; 5µM batch 3, 2h post-treatment): 1.3
- BMP4 expression (BMP/TGFβ; 5µM batch 3, 4h post-treatment): 0.1
- ID2 expression (BMP/TGFβ; 5µM batch 3, 4h post-treatment): 0.1
- SMAD6 expression (BMP/TGFβ; 5µM batch 3, 4h post-treatment): 0.4
- AXIN2 expression (WNT-TCF targets [2]; 1.25µM): 1.2
- AXIN2 expression (WNT-TCF targets [2]; 2.5µM): 0.6
- AXIN2 expression (WNT-TCF targets [2]; 5µM): 0.4
- AXIN2 expression (WNT-TCF targets [2]; 10µM): 0.4
- EED expression (Epigenetic regulators [3]): 0.3
- SETD6 expression (Epigenetic regulators [3]): 0.2
- SMARCAL1 expression (Epigenetic regulators [3]): 0.2
- TAF5L expression (Epigenetic regulators [3]): 0.4
- TBL1XR1 expression (Epigenetic regulators [3]): 0.02
- ZMYND8 expression (Epigenetic regulators [3]): 0.1
- EED expression (Epigenetic regulators [4]; 5µM batch 3, 2h post-treatment): 1.5
- SETD6 expression (Epigenetic regulators [4]; 5µM batch 3, 2h post-treatment): 2.0
- SMARCAL1 expression (Epigenetic regulators [4]; 5µM batch 3, 2h post-treatment): 1.6
- TAF5L expression (Epigenetic regulators [4]; 5µM batch 3, 2h post-treatment): 0.8
- TBL1XR1 expression (Epigenetic regulators [4]; 5µM batch 3, 2h post-treatment): 2.6
- ZMYND8 expression (Epigenetic regulators [4]; 5µM batch 3, 2h post-treatment): 1.3
- EED expression (Epigenetic regulators [4]; 5µM batch 3, 4h post-treatment): 0.5
- SETD6 expression (Epigenetic regulators [4]; 5µM batch 3, 4h post-treatment): 0.7
- SMARCAL1 expression (Epigenetic regulators [4]; 5µM batch 3, 4h post-treatment): 0.8
- TAF5L expression (Epigenetic regulators [4]; 5µM batch 3, 4h post-treatment): 0.3
- TBL1XR1 expression (Epigenetic regulators [4]; 5µM batch 3, 4h post-treatment): 0.6
- ZMYND8 expression (Epigenetic regulators [4]; 5µM batch 3, 4h post-treatment): 0.5
- EED expression (Epigenetic regulators [5]): 0.3
- SETD6 expression (Epigenetic regulators [5]): 0.4
- SMARCAL1 expression (Epigenetic regulators [5]): 0.2
- TAF5L expression (Epigenetic regulators [5]): 0.5
- TBL1XR1 expression (Epigenetic regulators [5]): 0.2
- ZMYND8 expression (Epigenetic regulators [5]): 0.1
- ASCL2 expression, TCF^VP16+ CAP2 / control + CAP2 (WNT-TCF targets [6]): 1.5
- AXIN2 expression, TCF^VP16+ CAP2 / control + CAP2 (WNT-TCF targets [6]): 3.4
- CDKN1A expression, TCF^VP16+ CAP2 / control + CAP2 (WNT-TCF targets [6]): 0.4
- LGR5 expression, TCF^VP16+ CAP2 / control + CAP2 (WNT-TCF targets [6]): 1.4
- cMYC expression, TCF^VP16+ CAP2 / control + CAP2 (WNT-TCF targets [6]): 0.8
- ASCL2 expression, TCF^VP16+ CAP2 / control + CAP2 (WNT-TCF targets [7]): 3.5
- AXIN2 expression, TCF^VP16+ CAP2 / control + CAP2 (WNT-TCF targets [7]): 21.9
- CDKN1A expression, TCF^VP16+ CAP2 / control + CAP2 (WNT-TCF targets [7]): 0.8
- LGR5 expression, TCF^VP16+ CAP2 / control + CAP2 (WNT-TCF targets [7]): 2.9
- cMYC expression, TCF^VP16+ CAP2 / control + CAP2 (WNT-TCF targets [7]): 3.3
- AXIN2 expression (WNT-TCF targets [8]; 1.25µM): 0.4
- LEF1 expression (WNT-TCF targets [8]; 1.25µM): 0.1
- AXIN2 expression (WNT-TCF targets [8]; 2.5µM): 0.6
- LEF1 expression (WNT-TCF targets [8]; 2.5µM): 0.2
- AXIN2 expression (WNT-TCF targets [8]; 5µM): 0.3
- LEF1 expression (WNT-TCF targets [8]; 5µM): 0.1
- AXIN2 expression (WNT-TCF targets [8]; 10µM): 0.6
- LEF1 expression (WNT-TCF targets [8]; 10µM): 0.1
- CXCL3 expression (Chemokine/cytokine; 5µM batch 3, 2h post-treatment): 0.2
- CXCL5 expression (Chemokine/cytokine; 5µM batch 3, 2h post-treatment): 1.3
- IL8 expression (Chemokine/cytokine; 5µM batch 3, 2h post-treatment): 0.7
- IL33 expression (Chemokine/cytokine; 5µM batch 3, 2h post-treatment): 1.4
- CXCL3 expression (Chemokine/cytokine; 5µM batch 3, 4h post-treatment): 0.1
- CXCL5 expression (Chemokine/cytokine; 5µM batch 3, 4h post-treatment): 1.1
- IL8 expression (Chemokine/cytokine; 5µM batch 3, 4h post-treatment): 0.8
- IL33 expression (Chemokine/cytokine; 5µM batch 3, 4h post-treatment): 1.1
